This note sets out measurements from US10174013B2, “Benzimidazole derivatives as kinase inhibitors” (SELVITA S.A., priority 2012, dated 2019).

In data set [1] the test system is MV4-11 xenograft. The data set is described as follows: MV4-11 xenograft in immunocompromised mice. The class given is in vivo. To be noted: MV4-11 xenograft, oral. An excerpt:
Several compounds of the present invention have been studied in a xenograft in mice, an in vivo tumor transplantation model used to investigate the factors involved in malignant transformation, invasion and metastasis, as well as to examine response to therapy. For the purpose of acceptance of donor leukemic cells (MV4-11 or MOLM16 cells), immunocompromised mice were used, namely particularly severely compromised immunodeficient mice (NOD/scid, SCID/beige). When tumors developed size of approx. 50-200 mm^3, the compounds as indicated below in Tables 3 and 3a were administered orally every day for 2-3 weeks, in once a day (QD) or twice a day (BID) schedule. During the course of the experiment, the mice were monitored and the following two parameters were measured: the tumor growth inhibition (TGI) factor as a measure of therapeutic efficacy and the body weight change (ΔBW) factor as a measure of possible compound toxicity. The results are depicted in Tables 3 and 3a.
Next, compound 26A was evaluated in a xenograft study of acute myeloid leukemia (MV-4-11), alone or in a combinational treatment with Cytarabine in vivo (Table 3b; FIG. 6). Compound 26A was tested in two doses (50 and 25 mg/kg) and administered twice a day (BID); Cytarabine was administered at dose of 50 mg/kg three times in a week (TIW). During 15 days of compound administration dose-dependent anti-cancer activity of compound 26A (administered alone) was shown. Tumor growth inhibition reached −82% and −77%, respectively.

For data set [2], the system named is HepG2 cells. The data set is described as follows: Growth inhibition, MTS assay, HepG2. To be noted: MTS cell viability, read-out: HepG2 ED50. The class given is cell-based, Human.
The subject of data set [3] is FLT3-ITD. Put plainly: ADP-Glo Kinase Assay, Flt3 ITD. It counts as biochemical, Human. To be noted: 1 μM compound. The method, then: Compounds of the present invention were tested for their inhibitory activity against Pim-1, Pim-2, Pim-3, Flt3 wt, Flt3 ITD, CDK2/E and DYRK1. The testing of the compounds was carried out using the ADP-Glo™ Kinase Assay from Promega Corporation (Madison, Wis., USA).
The ADP-Glo™ Kinase Assay is a luminescent ADP detection assay to measure kinase activity by quantifying the amount of ADP produced during a kinase reaction. The kinase assay is performed in kinase assay buffer (5 mM MOPS, pH 7.5, 5 mM MgCl2, 0.4 mM EDTA, 1.5 mM DTT). Test samples initially dissolved in DMSO at 10 mM were diluted with the assay buffer to 1000 nM. A 30 μL volume/well of a mixture of substrates containing ATP (final ATP concentration in each kinase assay was equal to its apparent ATP Km).
The assay was performed in two steps: first, after the kinase reaction, an equal volume of ADP-Glo™ Reagent was added to terminate the kinase reaction and deplete the remaining ATP. Second, the Kinase Detection Reagent was added to simultaneously convert ADP to ATP and allowed the newly synthesized ATP to be measured using a luciferase/luciferin reaction. The luminescent signal generated was proportional to the ADP concentration produced and was correlated with kinase activity. A microplate spectrophotometer (Synergy 2 multi-mode microplate reader [BioTek]) was used for detecting the luminescence. The data was normalized and the percent of inhibition was obtained according to the following equation: […]
On the technique in general: ADP-Glo turns the ADP formed in a reaction into a luminescent signal.

For data set [4], the system named is MOLM16 cells. Put plainly: Growth inhibition, MTS assay, MOLM16. It counts as cell-based, Human. To be noted: MTS cell viability, read-out: MOLM 16 ED50. From the text: (§1) The following cell lines, were obtained and used in tests as outlined below: • Human myelomonocytic, biphenotypic leukemia MV4-11 cells (harboring a Flt3-ITD mutation); • Human Acute Myeloid Leukemia MOLM16 cells; • Human Acute Myeloid Leukemia MOLM13 cells (harboring a Flt3-ITD mutation); • Human Myeloid Leukemia KG-1 cells; • Human erythroleukemia HEL92 cells; • Human mantle cell lymphoma Jeko-1 cells; • Human hepatocellular carcinoma HepG2 cells; and • Human colon adenocarcinoma SW-480 cells.
(§2) The assays were carried out according to the following protocol, which is described as an example for the MV4-11 cells:
(§3) Ten thousand MV4-11 cells were inoculated into each well of a 96-well microplate (manufactured by Corning Corp.) using Iscove's MDM medium (culture medium) containing 10% fetal calf serum (FCS). The same day, a dimethyl sulfoxide (DMSO) solution of each test compound prepared in a concentration of 10 mmol/L was further diluted with DMSO to the desired concentrations (0.1, 0.5, 1, 2.5, 5 and 10 micromol/L), and the diluted solution was added to each well. The individual wells were further cultured in 5% carbon dioxide at 37° C. for 72 hours. […] Briefly, 10 μl MTS (3-(4,5-Dimethyl-2-thiazolyl)-5-(carboxymethoxyphenyl)-2-(4-sulfophenyl)-2H-tetrazolium was added to each well, and culturing was performed in 5% carbon dioxide at 37° C. for 2 hours. After this incubation and using a microplate spectrophotometer (Synergy 2 multi-mode microplate reader (BioTek)), the absorbance of each well was measured at 490 nm. The value for cells not incubated with a test compound was designated as 100%. By comparing these values with the absorbance difference obtained at the well in which each test compound was added, the cell viability (% viability) after treatment with the test compound was calculated.
Background: Formazan colour is commonly taken as a measure of viable cells.

In data set [5] the target is Pim-3 (Homo sapiens (Human), UniProt Q86V86). Put plainly: ADP-Glo Kinase Assay, Pim-3. It counts as biochemical. To be noted: 1 μM compound; for inhibition at 1 µM: read-out: Pim-3 % INH (1 μM). An outline of the steps:
(§4)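 Compounds were diluted in assay buffer to 1000 nM and incubated with kinase, substrate and ATP at apparent Km. Remaining ATP was depleted, ADP converted to ATP and detected by luciferase; percent inhibition came from normalized luminescence.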

The test system of data set [6] is MV4-11 cells. Put plainly: Growth inhibition, MTS assay, MV4-11. It counts as cell-based, Human. To be noted: MTS cell viability, read-out: MV4-11 ED50.
Data set [7] concerns the target Pim-1 (Homo sapiens (Human), UniProt P11309). Put plainly: ADP-Glo Kinase Assay, Pim-1. It counts as biochemical. To be noted: 1 μM compound; for inhibition at 1 µM: read-out: Pim-1 % INH (1 μM). An outline of the steps: as §4
The target in data set [8] is Pim-2 (Homo sapiens (Human), UniProt Q9P1W9). The data set is described as follows: ADP-Glo Kinase Assay, Pim-2. The class given is biochemical. To be noted: 1 μM compound; for inhibition at 1 µM: read-out: Pim-2 % INH (1 μM). An outline of the steps: as §4
For data set [9], the target named is CDK2/E (Homo sapiens (Human), UniProt P24941). Put plainly: ADP-Glo Kinase Assay, CDK2/E. The class given is biochemical. To be noted: 1 μM compound; for inhibition at 1 µM: read-out: CDK2/E % INH (1 μM). An outline of the steps:
as §4

Data set [10] has as its system KG-1 cells. Put plainly: Growth inhibition, MTS assay, KG-1. It counts as cell-based, Human. To be noted: 72 hours, MTS cell viability.
Description: as §1, §2, §3

Data set [11] deals with HEL92 cells. Put plainly: Growth inhibition, MTS assay, HEL92. The class given is cell-based, Human. To be noted: MTS cell viability, read-out: HEL92 ED50.
In data set [12] the test system is Jeko-1 cells. Put plainly: Growth inhibition, MTS assay, Jeko-1. It counts as cell-based, Human. To be noted: 72 hours, MTS cell viability, read-out: Jeko-1 ED50.
In data set [13] the test system is MOLM13 cells. Put plainly: Growth inhibition, MTS assay, MOLM13. The class given is cell-based, Human. To be noted: 72 hours, MTS cell viability, read-out: MOLM 13 ED50.
Description: as §1, §2, §3

Data set [14] has as its system SW-480 cells. The data set is described as follows: Growth inhibition, MTS assay, SW-480. It counts as cell-based, Human. To be noted: 72 hours, MTS cell viability; read-out: SW-480 ED50.
Data set [15] addresses FLT3wt (Homo sapiens (Human), UniProt P36888). Put plainly: ADP-Glo Kinase Assay, Flt3 wt. It counts as biochemical. To be noted: 1 μM compound; for inhibition at 1 µM: read-out: Flt3wt % INH (1 μM). An outline of the steps:
as §4

In data set [16] the target is DYRK1 (Homo sapiens (Human), UniProt Q13627). Put plainly: ADP-Glo Kinase Assay, DYRK1. It counts as biochemical. To be noted: 1 μM compound; for inhibition at 1 µM: read-out: DYRK1A % INH (1 μM). An outline of the steps:
as §4

In data set [17] the target is hERG potassium channel (Homo sapiens (Human), UniProt Q12809). Put plainly: hERG automated patch clamp assay (QPatch HT). An outline of the steps: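 Automated whole-cell patch clamp of hERG current in mammalian cells at room temperature. Compounds applied at 0.1, 1, 3, 10 and 30 μM, 3 min per concentration, n≥2 cells each.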
(In general: hERG is a cardiac potassium channel; its block is linked to QT prolongation.)

The target in data set [18] is CYP3A4 (Homo sapiens (Human), UniProt P08684). Put plainly: Cytochrome P450 inhibition, fluorescence, CYP3A4. It counts as in vitro ADME. To be noted: recombinant CYP3A4, fluorescence detection; read-out: CYP inhibition (CYP 3A4 screening, IC50 class). An outline of the steps:
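Recombinant human CYP3A4 was incubated at 37 °C for 30–45 min with a fluorogenic probe substrate near apparent Km and serially diluted compound, after ≥10 min preincubation with an NADPH-regenerating system. Fluorescence was read after stopping, with compound autofluorescence measured beforehand and no-inhibitor and pre-stopped blanks as controls.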

Like-named read-outs stand apart in the source and are kept apart here. Where only a bound is given, the exact number is not on record here.

Chain of Pim-2 (Q9P1W9 whole entry): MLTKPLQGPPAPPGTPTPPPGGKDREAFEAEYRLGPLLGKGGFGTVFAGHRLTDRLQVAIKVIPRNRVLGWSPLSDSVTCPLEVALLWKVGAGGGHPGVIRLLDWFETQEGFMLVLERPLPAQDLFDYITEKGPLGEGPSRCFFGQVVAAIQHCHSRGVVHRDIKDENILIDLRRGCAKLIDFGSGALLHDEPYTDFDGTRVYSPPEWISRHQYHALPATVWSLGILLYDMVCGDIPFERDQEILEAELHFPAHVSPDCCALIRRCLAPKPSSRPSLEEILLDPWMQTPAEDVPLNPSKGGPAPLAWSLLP
Chain of Pim-1 (P11309 whole entry): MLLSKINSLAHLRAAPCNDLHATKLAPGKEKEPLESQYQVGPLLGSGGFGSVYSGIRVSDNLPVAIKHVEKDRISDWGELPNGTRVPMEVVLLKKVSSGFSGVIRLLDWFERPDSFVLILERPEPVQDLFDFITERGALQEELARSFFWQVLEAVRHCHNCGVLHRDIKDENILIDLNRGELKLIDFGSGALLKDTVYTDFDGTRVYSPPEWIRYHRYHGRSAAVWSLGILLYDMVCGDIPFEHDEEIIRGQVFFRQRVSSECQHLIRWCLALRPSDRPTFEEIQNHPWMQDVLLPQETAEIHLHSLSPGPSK
Chain of FLT3wt (P36888 27-993): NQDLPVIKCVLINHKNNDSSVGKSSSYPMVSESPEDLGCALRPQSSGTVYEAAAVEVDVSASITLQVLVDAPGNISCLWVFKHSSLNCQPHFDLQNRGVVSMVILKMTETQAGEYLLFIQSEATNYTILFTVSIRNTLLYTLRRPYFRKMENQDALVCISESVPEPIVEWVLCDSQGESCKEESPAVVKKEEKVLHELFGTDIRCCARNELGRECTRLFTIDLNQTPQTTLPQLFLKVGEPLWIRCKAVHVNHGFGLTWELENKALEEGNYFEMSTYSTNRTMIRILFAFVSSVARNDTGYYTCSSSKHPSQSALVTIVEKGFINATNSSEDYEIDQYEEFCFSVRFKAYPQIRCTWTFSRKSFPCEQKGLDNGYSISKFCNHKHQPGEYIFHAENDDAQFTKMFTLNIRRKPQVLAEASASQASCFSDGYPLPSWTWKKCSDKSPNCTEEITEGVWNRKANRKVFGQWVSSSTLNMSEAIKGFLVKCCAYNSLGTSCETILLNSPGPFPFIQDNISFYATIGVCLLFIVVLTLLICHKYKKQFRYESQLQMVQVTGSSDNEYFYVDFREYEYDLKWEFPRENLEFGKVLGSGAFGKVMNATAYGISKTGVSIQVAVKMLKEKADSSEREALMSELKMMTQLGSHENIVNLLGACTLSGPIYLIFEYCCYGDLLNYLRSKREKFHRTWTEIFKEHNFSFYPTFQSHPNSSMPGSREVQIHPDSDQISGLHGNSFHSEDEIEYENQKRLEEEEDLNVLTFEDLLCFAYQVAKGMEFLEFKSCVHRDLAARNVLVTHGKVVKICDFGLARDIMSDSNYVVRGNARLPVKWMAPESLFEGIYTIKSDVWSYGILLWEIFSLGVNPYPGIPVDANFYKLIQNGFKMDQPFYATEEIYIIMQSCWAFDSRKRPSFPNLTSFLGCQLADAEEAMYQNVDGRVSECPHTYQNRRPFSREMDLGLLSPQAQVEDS
Chain of CYP3A4 (P08684 whole entry): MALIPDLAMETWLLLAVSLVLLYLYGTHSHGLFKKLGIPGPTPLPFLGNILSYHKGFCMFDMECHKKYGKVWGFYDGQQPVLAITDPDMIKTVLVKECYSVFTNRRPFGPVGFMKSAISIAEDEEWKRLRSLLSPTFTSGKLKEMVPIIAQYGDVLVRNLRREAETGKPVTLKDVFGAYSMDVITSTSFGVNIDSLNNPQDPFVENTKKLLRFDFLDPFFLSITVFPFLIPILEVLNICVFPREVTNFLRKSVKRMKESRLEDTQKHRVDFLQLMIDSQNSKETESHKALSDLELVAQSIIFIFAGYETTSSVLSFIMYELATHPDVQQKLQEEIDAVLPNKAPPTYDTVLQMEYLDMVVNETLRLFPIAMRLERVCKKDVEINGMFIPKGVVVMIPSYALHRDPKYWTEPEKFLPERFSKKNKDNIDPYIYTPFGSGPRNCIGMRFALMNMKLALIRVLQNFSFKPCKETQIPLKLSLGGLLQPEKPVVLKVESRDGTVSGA
Chain of hERG potassium channel (Q12809 whole entry): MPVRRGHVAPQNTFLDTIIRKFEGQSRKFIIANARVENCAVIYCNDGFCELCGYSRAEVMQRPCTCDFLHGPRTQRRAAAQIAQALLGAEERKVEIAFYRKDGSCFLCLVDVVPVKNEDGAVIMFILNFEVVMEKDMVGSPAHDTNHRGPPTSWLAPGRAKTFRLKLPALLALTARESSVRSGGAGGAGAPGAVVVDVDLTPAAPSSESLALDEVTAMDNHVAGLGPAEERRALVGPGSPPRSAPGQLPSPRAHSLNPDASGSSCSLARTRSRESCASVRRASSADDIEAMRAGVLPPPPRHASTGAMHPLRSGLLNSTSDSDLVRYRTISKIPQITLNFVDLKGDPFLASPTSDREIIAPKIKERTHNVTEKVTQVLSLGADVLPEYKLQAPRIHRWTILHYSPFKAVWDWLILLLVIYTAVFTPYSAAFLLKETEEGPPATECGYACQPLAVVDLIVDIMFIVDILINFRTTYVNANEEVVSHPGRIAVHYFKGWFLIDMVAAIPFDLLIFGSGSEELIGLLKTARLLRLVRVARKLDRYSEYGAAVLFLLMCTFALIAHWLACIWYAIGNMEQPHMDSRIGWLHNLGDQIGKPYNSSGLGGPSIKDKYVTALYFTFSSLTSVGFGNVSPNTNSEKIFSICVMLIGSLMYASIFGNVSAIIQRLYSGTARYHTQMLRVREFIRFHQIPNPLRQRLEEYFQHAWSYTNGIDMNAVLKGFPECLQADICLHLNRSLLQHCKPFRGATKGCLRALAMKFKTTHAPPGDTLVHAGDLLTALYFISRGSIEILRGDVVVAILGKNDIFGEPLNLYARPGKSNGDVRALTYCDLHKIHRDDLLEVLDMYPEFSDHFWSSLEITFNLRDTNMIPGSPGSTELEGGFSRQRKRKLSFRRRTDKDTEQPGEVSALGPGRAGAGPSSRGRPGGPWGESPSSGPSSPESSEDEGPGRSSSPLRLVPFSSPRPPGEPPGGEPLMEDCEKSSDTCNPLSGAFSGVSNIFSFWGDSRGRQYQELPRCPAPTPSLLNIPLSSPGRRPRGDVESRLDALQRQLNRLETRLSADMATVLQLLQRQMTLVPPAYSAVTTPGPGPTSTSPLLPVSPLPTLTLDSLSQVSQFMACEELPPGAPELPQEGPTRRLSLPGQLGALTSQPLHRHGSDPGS

Take `CCn1c(N2CCC[C@H](N)C2)nc2c([N+](=O)[O-])c(Br)c(Br)cc21` [Example 1AH]: the “TGI (tumor growth inhibition)” value in data set [1] (150 mg/Kg QD) was 74%; in [1] (doses as in Table 3), “more than 70%”. Besides, the “ΔBW (body weight change)” value in data set [1] (150 mg/Kg QD) came to 0.6%. The IC50 turned out to be 2200 nM in data set [2] (72 hours); 0.2 µM in data set [4] (72 hours); 600 nM in data set [6] (72 hours); 6.0 µM in data set [11] (72 hours); 1.9 µM in [12]; 1.8 µM in [13]. Besides, the IC50 in [14] came out at 7.0 µM. Further, the “Flt3ITD % INH (1 μM)” value in data set [3] was determined as 29%. The “Pim-3 % INH (1 μM)” value in [5] was >95%. Also, the “Pim-1 % INH (1 μM)” value in [7] is >95%. The “Pim-2 % INH (1 μM)” value in [8] is listed as 55%. For the same compound, in [9], the “CDK2/E % INH (1 μM)” value came to 6%. In addition, the “KG-1 ED50” value in data set [10] was found to be 0.65 µM. Besides, in data set [15], the “Flt3wt % INH (1 μM)” value is 9%. Besides, in [16], the “DYRK1A % INH (1 μM)” value was found to be 39%.

Take `CCn1c(N2CC[C@H](N)C2)nc2c(C#N)c(Br)c(Br)cc21` [Example 1DR]: the IC50 in data set [2] (Homo sapiens, HepG2, 72 h) amounted to 1200 nM; in data set [4] (Homo sapiens, MOLM16, 72 h), 0.1 µM; in [6] (Homo sapiens, MV4-11, 72 h) it was 1000 nM; in [11] (Homo sapiens, 72 h), 6.2 µM; in data set [12] (Homo sapiens, JeKo-1) it was 1.3 µM; in data set [13] (Homo sapiens, MOLM-13), 3.9 µM. In addition, the “Flt3ITD % INH (1 μM)” value in data set [3] is 50%. Further, the inhibition at 1 µM in [5] is 91%; in [7], > 95%; in data set [8], 59%; in data set [9], 28%; in data set [15], 18%; in data set [16], 65%. In addition, in [10], the “KG-1 ED50” value came out at 0.14 µM.

On to `CC(C)n1c(NCCOCCN)nc2c([N+](=O)[O-])c(Br)c(Br)cc21` [Example 22J, N-[2-(2-aminoethoxy)ethyl]-5,6-dibromo-4-nitro-1-(propan-2-yl)-1H-1,3-benzodiazol-2-amine], for which the IC50 is 11.9 µM in data set [17]; 4700 nM in [2] (Homo sapiens, HepG2, 72 h); 2800 nM in data set [6] (Homo sapiens, MV4-11, 72 h); 3.3 to 10 µM in [18]. For the same compound, in data set [3], the “Flt3ITD % INH (1 μM)” value was 5%. For the same compound, the inhibition at 1 µM is 79% in [5]; > 95% in [7]; 31% in data set [8]; < 5% in [9]; < 5% in data set [15]; 16% in data set [16].
